Source: ChEMBL document CHEMBL1201862, “PubChem BioAssay data set” (2004)
The source made the active and inactive calls.

How the values were obtained:
[1] = biological target: T1, Heat shock factor protein 1 (Mus musculus, UniProt P38532); assay: inhibition of MG132-induced HSE-luciferase signal, confirmation, cell-based, NIH3T3, luminescence, dose retest (AID 2382); type: functional;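 note: NIH3T3 fibroblasts with HSF1-driven luciferase reporter stressed by proteasome inhibitor MG132; luminescence from HSF1-driven luciferase expression after 8 hours of MG132 stress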
T1 sequence (P38532 whole entry): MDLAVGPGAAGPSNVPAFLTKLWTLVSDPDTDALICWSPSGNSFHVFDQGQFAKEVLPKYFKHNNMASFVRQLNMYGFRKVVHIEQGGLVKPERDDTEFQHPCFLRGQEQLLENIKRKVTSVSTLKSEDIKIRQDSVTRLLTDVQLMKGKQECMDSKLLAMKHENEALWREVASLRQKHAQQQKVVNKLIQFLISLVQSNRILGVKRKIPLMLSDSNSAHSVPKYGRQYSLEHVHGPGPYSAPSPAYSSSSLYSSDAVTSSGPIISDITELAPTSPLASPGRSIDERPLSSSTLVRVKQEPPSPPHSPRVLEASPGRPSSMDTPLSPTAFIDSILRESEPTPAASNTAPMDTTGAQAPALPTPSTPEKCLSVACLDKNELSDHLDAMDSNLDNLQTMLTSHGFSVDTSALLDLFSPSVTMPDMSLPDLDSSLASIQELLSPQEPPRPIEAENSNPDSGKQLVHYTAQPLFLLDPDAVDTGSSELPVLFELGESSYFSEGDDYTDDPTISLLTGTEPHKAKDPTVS

[2] = Luminescence Cell-Based Dose Retest to Confirm Inhibitors of Cancer Stem Cells. [Related pubchem assays (depositor defined):AID2717, AID2721]; type: functional; settings: Homo sapiens
Cytochrome P450 3A4 = Cytochrome P450 3A4 (Homo sapiens, UniProt P08684);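 note: CYP3A4 tested as one member of a cytochrome P450 panel screen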
Cytochrome P450 2D6 = Cytochrome P450 2D6 (Homo sapiens, UniProt P10635);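 note: CYP2D6 member of a cytochrome P450 panel assay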
Protein RecA = biological target: T2, Protein RecA (Mycobacterium tuberculosis, UniProt P9WHJ3); assay: Fluorescence Cell-Free Homogeneous Dose Retest to Identify Inhibitors of RecA-Intein Splicing Activity. [Related pubchem assays (depositor defined):AID2097, AID2223, AID489010, AID492950]; type: functional
T2 sequence (P9WHJ3 whole entry): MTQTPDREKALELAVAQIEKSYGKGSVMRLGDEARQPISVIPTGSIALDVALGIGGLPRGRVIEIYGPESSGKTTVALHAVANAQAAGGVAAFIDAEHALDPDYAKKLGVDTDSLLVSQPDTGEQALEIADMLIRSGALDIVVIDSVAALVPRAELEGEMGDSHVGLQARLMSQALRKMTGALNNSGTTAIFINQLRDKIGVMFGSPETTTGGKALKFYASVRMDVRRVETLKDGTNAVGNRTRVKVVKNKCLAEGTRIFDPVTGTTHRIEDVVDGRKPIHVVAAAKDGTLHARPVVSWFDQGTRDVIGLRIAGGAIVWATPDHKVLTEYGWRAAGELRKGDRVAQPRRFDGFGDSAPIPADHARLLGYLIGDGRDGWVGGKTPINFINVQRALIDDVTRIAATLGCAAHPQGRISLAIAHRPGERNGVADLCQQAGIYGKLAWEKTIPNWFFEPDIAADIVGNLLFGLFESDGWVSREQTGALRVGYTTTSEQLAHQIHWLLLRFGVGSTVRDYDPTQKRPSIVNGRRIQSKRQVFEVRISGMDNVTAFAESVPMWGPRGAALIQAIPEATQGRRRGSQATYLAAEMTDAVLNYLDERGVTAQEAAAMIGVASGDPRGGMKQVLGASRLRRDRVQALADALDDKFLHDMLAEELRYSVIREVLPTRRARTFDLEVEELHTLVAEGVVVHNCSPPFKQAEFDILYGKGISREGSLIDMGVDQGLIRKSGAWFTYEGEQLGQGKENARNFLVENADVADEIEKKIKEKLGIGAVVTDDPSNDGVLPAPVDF

[3] = cytotoxicity toward NIH3T3 fibroblasts, dose response, counter-screen, cell-based, ATP luminescence, mouse fibroblasts (AID 2010); type: functional;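 note: cells exposed to compound for about 90 hours before reading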
[4] = inhibitors of intracellular T. cruzi replication, confirmation, NIH3T3 host cells, beta-gal luminescence (AID 2044); type: functional, cell-based;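 note: intracellular parasites grown in NIH/3T3 mouse fibroblasts as host cells; luminescent beta-galactosidase reporter signal from transgenic T. cruzi replicating inside host cells; inhibitors lower the luminescence signal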
[5] = biological target: T3, Replicative DNA helicase DnaB (Mycobacterium tuberculosis, UniProt P9WMR3); assay: DnaB intein splicing inhibitors, dose response, biochemical, cell-free fluorescence (AID 449749); type: functional
T3 sequence (P9WMR3 whole entry): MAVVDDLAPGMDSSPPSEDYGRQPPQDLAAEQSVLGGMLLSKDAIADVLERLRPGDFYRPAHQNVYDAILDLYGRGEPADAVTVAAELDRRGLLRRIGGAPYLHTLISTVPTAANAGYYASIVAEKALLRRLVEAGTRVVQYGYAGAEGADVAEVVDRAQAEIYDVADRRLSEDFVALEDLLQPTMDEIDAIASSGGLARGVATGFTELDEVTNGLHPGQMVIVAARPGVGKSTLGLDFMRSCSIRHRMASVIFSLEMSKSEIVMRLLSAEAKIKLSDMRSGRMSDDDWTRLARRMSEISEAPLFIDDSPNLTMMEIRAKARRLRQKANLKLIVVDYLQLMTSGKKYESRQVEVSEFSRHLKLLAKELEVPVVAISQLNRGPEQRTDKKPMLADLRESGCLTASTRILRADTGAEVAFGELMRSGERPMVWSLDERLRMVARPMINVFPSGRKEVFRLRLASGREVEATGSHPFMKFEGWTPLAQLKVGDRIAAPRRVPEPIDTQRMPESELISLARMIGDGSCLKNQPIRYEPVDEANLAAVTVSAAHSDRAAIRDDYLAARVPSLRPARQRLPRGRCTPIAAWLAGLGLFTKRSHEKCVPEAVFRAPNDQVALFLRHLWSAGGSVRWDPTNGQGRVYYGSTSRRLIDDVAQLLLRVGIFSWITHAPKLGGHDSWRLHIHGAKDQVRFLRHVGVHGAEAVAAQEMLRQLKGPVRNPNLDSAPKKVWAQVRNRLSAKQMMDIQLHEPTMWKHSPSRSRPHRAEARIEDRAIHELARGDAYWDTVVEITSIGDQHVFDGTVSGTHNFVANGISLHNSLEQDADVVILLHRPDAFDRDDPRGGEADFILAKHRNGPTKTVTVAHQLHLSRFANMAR

[6] = system: Streptococcus sp. 'group A'; assay: growth inhibition of control SK(-) GAS strain, dose response, counter-screen for streptokinase expression inhibitor project, luminescence, kanamycin, BacTiterGlo, confirmation (AID 1900); type: functional, organism-based
Streptococcus = assay: Group A Streptococcus viability loss, dose response, counter-screen for streptokinase expression inhibitor project, luminescence, BacTiterGlo (AID 1915); type: functional, organism-based;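 note: potency for reduction of bacterial viability or growth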
[7] = biological target: T4, Corticotropin-releasing factor receptor 2/Corticotropin-releasing factor-binding protein (Homo sapiens, UniProt P24387+Q13324); assay: activators of CRF receptor 2 with binding protein – uHTS hits, confirmation (AID 602473); type: functional; settings: read-out: EC50_Mean
T4 sequence (Q13324 whole entry): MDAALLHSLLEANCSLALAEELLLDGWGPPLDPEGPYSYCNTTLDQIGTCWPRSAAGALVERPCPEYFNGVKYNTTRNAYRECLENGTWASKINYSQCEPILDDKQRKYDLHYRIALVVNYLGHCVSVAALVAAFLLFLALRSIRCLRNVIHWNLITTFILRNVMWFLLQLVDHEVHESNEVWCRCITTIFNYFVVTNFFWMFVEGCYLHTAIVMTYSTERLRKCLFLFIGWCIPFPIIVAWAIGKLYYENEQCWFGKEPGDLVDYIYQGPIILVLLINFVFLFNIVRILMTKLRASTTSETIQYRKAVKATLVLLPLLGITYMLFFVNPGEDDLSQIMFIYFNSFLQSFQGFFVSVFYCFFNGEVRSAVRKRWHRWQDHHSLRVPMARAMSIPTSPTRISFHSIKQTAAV
T4 sequence (P24387 whole entry): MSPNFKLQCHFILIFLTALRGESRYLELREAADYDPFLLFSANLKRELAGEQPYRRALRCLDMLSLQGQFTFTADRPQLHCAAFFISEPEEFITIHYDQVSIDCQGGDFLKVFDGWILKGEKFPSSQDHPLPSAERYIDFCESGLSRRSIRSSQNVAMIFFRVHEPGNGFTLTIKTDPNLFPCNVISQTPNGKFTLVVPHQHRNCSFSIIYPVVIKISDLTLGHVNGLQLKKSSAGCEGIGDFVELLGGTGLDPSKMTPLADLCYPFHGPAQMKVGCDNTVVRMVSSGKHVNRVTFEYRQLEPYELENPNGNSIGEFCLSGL

Cytochrome P450 2C19 = Cytochrome P450 2C19 (Homo sapiens, UniProt P33261); assay: Cytochrome panel assay with activity outcomes. Panel member name: p450-cyp2c19 Compounds with AC50 equal or less than 10 uM are considered active; type: functional; settings: read-out: AC50
Chain of Cytochrome P450 2C19 (P33261 whole entry): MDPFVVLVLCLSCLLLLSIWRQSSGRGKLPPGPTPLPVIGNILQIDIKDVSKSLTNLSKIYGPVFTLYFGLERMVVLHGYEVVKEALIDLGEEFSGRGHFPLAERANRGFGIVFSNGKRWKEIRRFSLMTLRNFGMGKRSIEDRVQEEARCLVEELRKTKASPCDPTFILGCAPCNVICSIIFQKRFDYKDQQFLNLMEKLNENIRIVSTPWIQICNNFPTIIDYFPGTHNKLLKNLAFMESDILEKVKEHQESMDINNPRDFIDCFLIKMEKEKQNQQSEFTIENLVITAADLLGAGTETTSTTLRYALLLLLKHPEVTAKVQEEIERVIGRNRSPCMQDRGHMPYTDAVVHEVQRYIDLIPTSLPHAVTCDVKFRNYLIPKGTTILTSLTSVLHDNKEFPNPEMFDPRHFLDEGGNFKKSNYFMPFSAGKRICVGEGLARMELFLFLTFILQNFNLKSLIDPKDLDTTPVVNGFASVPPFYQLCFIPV

Chain of Cytochrome P450 3A4 (P08684 whole entry): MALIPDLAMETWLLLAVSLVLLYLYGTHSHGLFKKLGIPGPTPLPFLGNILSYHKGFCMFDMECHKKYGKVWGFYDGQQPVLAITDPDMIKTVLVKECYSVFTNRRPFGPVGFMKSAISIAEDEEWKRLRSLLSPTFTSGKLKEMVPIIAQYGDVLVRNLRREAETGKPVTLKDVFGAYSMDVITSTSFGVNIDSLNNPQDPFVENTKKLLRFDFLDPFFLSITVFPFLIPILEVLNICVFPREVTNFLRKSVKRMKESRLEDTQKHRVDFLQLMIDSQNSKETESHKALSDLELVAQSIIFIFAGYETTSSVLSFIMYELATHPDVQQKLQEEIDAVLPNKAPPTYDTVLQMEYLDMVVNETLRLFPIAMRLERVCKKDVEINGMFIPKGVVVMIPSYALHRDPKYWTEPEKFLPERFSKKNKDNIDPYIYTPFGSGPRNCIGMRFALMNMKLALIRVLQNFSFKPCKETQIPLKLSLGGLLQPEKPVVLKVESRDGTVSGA
Chain of Cytochrome P450 2D6 (P10635 whole entry): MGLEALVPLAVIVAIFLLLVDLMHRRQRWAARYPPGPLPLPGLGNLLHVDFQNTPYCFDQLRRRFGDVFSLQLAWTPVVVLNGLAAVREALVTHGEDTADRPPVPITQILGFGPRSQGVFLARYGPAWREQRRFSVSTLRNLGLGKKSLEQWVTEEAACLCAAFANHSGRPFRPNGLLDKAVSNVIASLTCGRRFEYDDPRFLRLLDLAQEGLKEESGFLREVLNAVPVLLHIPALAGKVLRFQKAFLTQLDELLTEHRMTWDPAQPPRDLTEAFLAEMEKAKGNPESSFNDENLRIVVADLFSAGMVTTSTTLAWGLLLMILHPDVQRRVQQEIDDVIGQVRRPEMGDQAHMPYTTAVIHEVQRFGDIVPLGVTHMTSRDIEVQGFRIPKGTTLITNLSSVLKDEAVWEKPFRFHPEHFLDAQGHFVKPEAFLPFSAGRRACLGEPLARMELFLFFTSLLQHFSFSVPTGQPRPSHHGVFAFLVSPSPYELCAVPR

CC(C)(C)c1ccc(C(=O)NC(=S)Nc2nc3c(s2)CCCC3)cc1
EC50 [1]: 0.192 µM (active)
AC50 [2]: 2.02 µM (active)

Cn1cc(-c2nc3cncnc3n(C3CC3)c2=O)c2ccccc21
AC50 (Cytochrome P450 3A4): 7.94 µM (inconclusive)

CCNc1ncc2nc(-c3cn(C)c4ccccc34)c(=O)n(CCC#N)c2n1
AC50 (Cytochrome P450 3A4): 12.6 µM (inconclusive)

CCn1c(=O)c(C(=O)NCCc2ccccc2)c(O)c2ccccc21
AC50 [2]: 6.91 µM (active)

Fc1cccc(C2NC(S)=NC3=C2N2CCC3CC2)c1 (stereo not drawn)
AC50 (Cytochrome P450 2D6): 3.16 µM (inconclusive)
AC50 (Cytochrome P450 3A4): 25.1 µM (inconclusive)

Cc1[nH]c2ccc(F)cc2c1CCN(Cc1cccnc1)C(S)=Nc1ccc(F)cc1
EC50 (Protein RecA): 93.4 µM (active)
EC50 [3]: > 30 µM (not active)
EC50 [4]: 0.705 µM (active)
AC50 [5]: 17.2 µM (active)

CCCCOc1ccc(C2C3CN(C(=O)OCC)CC=C3C(C#N)=C(N)C2(C#N)C#N)cc1OC (stereo not drawn)
EC50 (Protein RecA): 29.8 µM (active)
AC50 [5]: > 380 µM (inactive)

Cc1ccccc1CS(=O)(=O)c1snnc1C
EC50 (Protein RecA): > 380 µM (inactive)
AC50 [5]: > 380 µM (inactive)

COC(=O)c1c(-c2ccc(OC)cc2)oc2ccc(-c3cc(OC)c(OC)c(OC)c3)cc12
AC50 [2]: 5.85 µM (active)

COc1ccc(NC(=S)N(CCc2nc3cc(C)c(C)cc3[nH]2)Cc2cccnc2)cc1
AC50 (Cytochrome P450 3A4): 0.891 µM (inconclusive)

O=C1CC/[N+](=C\c2ccccc2)[N-]1
EC50 (Protein RecA): 4.58 µM (active)
AC50 [5]: 19.4 µM (active)

COC(=O)Cc1n[nH]c2c1C(c1c[nH]c3ccccc13)C(C#N)=C(N)O2 (stereo not drawn)
EC50 (Protein RecA): > 380 µM (inconclusive)
AC50 [5]: > 380 µM (inactive)

CC(=O)OCC1=C(C(=O)O)N2C(=O)C(NC(=O)C(C)Cn3cc(Cl)cn3)C2SC1 (stereo not drawn)
EC50 [6]: 1.39 µM (active)
EC50 (Streptococcus): 1.27 µM (active)

CC1(c2ccc(OC(F)F)cc2)NC(=O)N(CC(=O)Nc2cccc(F)c2)C1=O (stereo not drawn)
EC50 [7]: 4.52 µM (active)

COc1ccc(NC(=O)c2ccc(COc3ccccc3Br)o2)cc1OC
AC50 [2]: 1.69 µM (active)

CCCC1CC(C(=O)NC(C(C)Cl)C2OC(SC)C(O)C(O)C2O)N(C)C1 (stereo not drawn)
EC50 [6]: < 0.06 µM (active)
EC50 (Streptococcus): < 0.06 µM (active)

FC(F)Oc1ccc(-c2csc(NNC3=NCCCCC3)n2)cc1
AC50 [2]: 1.77 µM (active)

Cc1ccc(NC(=O)C2C3CCCC2C3c2ccccc2)cc1C (stereo not drawn)
AC50 (Cytochrome P450 3A4): 8.91 µM (inconclusive)

O=C1c2cc(Br)ccc2N(Cc2ccc(Br)cc2)S(=O)(=O)C1c1cc(Cl)c(Cl)cc1[N+](=O)[O-] (stereo not drawn)
AC50 [2]: 1.06 µM (active)

O=S(=O)(NC1CC(NS(=O)(=O)OCC(Cl)(Cl)Cl)C2CCCCC12)OCC(Cl)(Cl)Cl (stereo not drawn)
AC50 [2]: 1.31 µM (active)

O=[N+]([O-])c1cc(Cl)cc2c1nc(NCCO)c1ccccc12
AC50 (Cytochrome P450 3A4): 3.16 µM (inconclusive)

CC(C)CN1CCCC2(CCN(C(=O)Oc3ccccc3)CC2)C1
AC50 (Cytochrome P450 2D6): 20 µM (inconclusive)
AC50 (Cytochrome P450 3A4): 25.1 µM (inconclusive)

Cc1cccc(C(=O)OCC(=O)Nc2nnc(-c3ccccc3)o2)c1O
EC50 [6]: 3.11 µM (active)
EC50 (Streptococcus): 4.74 µM (active)

Cc1nc2cnc(OCc3ccccc3)nc2n(CCc2ccccc2)c1=O
AC50 (Cytochrome P450 3A4): 25.1 µM (inconclusive)

COc1cccc(-c2cc3nc(-c4ccccc4)cc(N4CCC5(CC4)OCCO5)n3n2)c1
EC50 [3]: > 30 µM (not active)
AC50 (Cytochrome P450 2C19): 2 µM (inconclusive)
EC50 [4]: 1.82 µM (active)
AC50 (Cytochrome P450 3A4): 20 µM (inconclusive)

C/C=C(/C)C(=O)OC1CC(C)(C)C[C@H]2C3=CC[C@@H]4[C@@]5(C)CCC(O[C@@H]6O[C@@H](C(=O)O)[C@@H](O)C(O[C@@H]7OC[C@H](O)[C@@H](O)[C@@H]7O[C@@H]7OC(CO)C(O)[C@@H](O)[C@@H]7O)C6O[C@@H]6OC(CO)C(O)C(O)C6O)[C@@](C)(CO)[C@@H]5CC[C@]4(C)[C@]3(C)CC(O)[C@@]12CO (stereo partly drawn)
EC50 [7]: 5.49 µM (active)

COc1ccccc1Nc1nc(-c2sc(NC(=O)c3ccccc3)nc2C)cs1
AC50 (Cytochrome P450 2C19): 3.16 µM (inconclusive)
AC50 (Cytochrome P450 3A4): 15.8 µM (inconclusive)

CCOC(=O)Cn1cc(/C=N/NC(=O)CC#N)c2ccccc21
EC50 (Protein RecA): 6.38 µM (active)
AC50 [5]: 61.1 µM (active)

CCOC(=O)c1nnn(-c2nonc2-n2cccc2)c1CCl
EC50 (Protein RecA): 1.42 µM (active)
AC50 [5]: 5.35 µM (active)
